Source: patent publication US5025027A, “Cyclic carbamate analogues of (+)-pilocarpine” (Regents of the University of California, priority 1989, dated 1991)

Key:
muscarinic receptors = molecular target: T1, muscarinic receptors (Cavia porcellus, UniProt H0W1Z3); assay: Guinea pig ileum bioassay (isotonic contractions); conditions: for muscarinic agonist activity (in words) / EC50 / potency compared with pilocarpine (in words): guinea pig ileum; for muscarinic agonist activity (in words) / EC50: in vitro; for EC50: read-out: ED50 (the source's name); for potency compared with pilocarpine (in words): relative to pilocarpine; for contractions of guinea pig ileum (FIG. 1), in words: single doses, 9, 10, 8 in increasing order of potency
T1 construct: a distal portion of guinea pig ileum was cut and a segment (1-1.5 cm) was tied at both ends; from tissue; host or cells: guinea pig distal ileum segment (isolated organ bath)
T1 sequence (H0W1Z3 1-590): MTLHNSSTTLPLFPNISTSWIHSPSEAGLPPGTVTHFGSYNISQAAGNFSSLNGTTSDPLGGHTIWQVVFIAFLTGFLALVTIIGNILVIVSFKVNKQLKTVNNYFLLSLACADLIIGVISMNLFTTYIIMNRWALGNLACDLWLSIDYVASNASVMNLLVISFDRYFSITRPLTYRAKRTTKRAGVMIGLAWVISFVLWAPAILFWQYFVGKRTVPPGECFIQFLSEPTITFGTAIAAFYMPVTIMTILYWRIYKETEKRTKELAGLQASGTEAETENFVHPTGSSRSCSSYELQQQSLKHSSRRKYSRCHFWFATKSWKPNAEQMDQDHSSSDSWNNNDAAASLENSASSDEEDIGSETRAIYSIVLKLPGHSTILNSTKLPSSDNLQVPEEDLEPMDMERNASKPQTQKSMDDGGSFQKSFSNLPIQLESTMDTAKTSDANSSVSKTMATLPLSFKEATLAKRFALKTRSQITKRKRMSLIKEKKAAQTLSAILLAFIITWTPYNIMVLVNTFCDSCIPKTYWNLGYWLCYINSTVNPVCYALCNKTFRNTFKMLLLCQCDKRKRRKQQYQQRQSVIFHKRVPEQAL
Experimental: Guinea Pig Ileum Bioassay. Briefly, a distal portion of guinea pig ileum was cut and a segment (1-1.5 cm) was tied at both ends. One end was connected to a force displacement transducer and the other end to the muscle holder in a 5 ml organ bath. […] After the tissue was allowed to equilibrate for 45-60 minutes, single doses of agonists were administered into the bath and isotonic contractions were recorded on a Grass polygraph.

[1] = cited from earlier work; for pharmacological activity (in words): products of lactone cleavage or epimerization of pilocarpine; for activity of pilocarpine analogues (in words): less active than pilocarpine
[2] = cited from earlier work

| SMILES | muscarinic agonist activity (in words) (muscarinic receptors) | EC50 (muscarinic receptors) | potency compared with pilocarpine (in words) (muscarinic receptors) | contractions of guinea pig ileum (FIG. 1), in words (muscarinic receptors) | further results |
| --- | --- | --- | --- | --- | --- |
| CCN1C(=O)OC[C@@H]1Cc1cn(Cc2ccccc2)cn1 [Compound 6, (S)-3-Ethyl-4-(1,'-benzyl-4'-imidazolyl)methyl-2-oxazolidinone] | inactive | – | – | – | – |
| CCN1C(=O)OC[C@@H]1Cc1c[n+](Cc2ccccc2)cn1C [Compound 7] | inactive | – | – | – | – |
| CCN1C(=O)OC[C@@H]1Cc1cncn1C [Compound 8, (S)-3-Ethyl-4-(1'-methyl-5'-imidazolyl)methyl-2-oxazolidinone] | – | 1 µM | equipotent with pilocarpine | cholinergic muscarinic agonists | log concentration-response curves (in words) (muscarinic receptors; pilocarpine and 8 compared): parallel log concentration-response curves |
| CCN1C(=O)OC[C@@H]1Cc1c[nH]cn1 [Compound 9, (S)-3-Ethyl-4-(4'-imidazolyl)methyl-2-oxazolidinone] | weaker muscarinic agonists | 180 µM | less active | cholinergic muscarinic agonists | – |
| CCN1C(=O)OC[C@@H]1Cc1cn(C)cn1 [Compound 10, (S)-3-Ethyl-4-(1'-methyl-4'-imidazolyl)methyl-2-oxazolidinone] | weaker muscarinic agonists | 14 µM | less active | cholinergic muscarinic agonists | – |
| CC[C@H]1C(=O)OC[C@@H]1Cc1cncn1C [isopilocarpine] | – | – | – | – | pharmacological activity (in words) [1]: essentially pharacologically inactive |
| CC[C@@H]1C(=O)OC[C@@H]1Cc1cn(C)cn1 [neopilocarpine] | – | – | – | – | activity of pilocarpine analogues (in words) [1]: less active |
| CC[C@H](C(=O)O)[C@H](CO)Cc1cncn1C [pilocarpic acid] | – | – | – | – | pharmacological activity (in words) [1]: essentially pharacologically inactive |
| CC[C@@H]1C(=O)OC[C@@H]1Cc1cnc[nH]1 [pilocarpidine] | – | – | – | – | activity of pilocarpine analogues (in words) [1]: less active |
| CC[C@@H]1C(=O)OC[C@@H]1Cc1cncn1C [pilocarpine] | – | – | – | – | side effects on administration for long periods (in words) ([2]; administered for long periods): without side effects; effect on intraocular pressure (in words) ([2]; narrow and wide angle glaucoma): decreases the intraocular pressure; duration of intraocular pressure lowering ([2]; topical miotic): about three; duration of biological activity (in words) ([1]; due to hydrolytic cleavage of the lactone ring and/or epimerization): short duration of biological activity |
